In this test the target is Pol theta (1-899) (Homo sapiens (Human), UniProt O75417). The experiment in a line: Pol theta ATPase activity, NADH oxidation-coupled enzymatic assay. The note with it: Pol theta (1-899) 10 nM, ATP, dT50 ssDNA, absorbance 340 nm, 10-point dilution series; read-out: ATPase NADH coupling:Standard Screening:hPolQ IC50. It counts as biochemical. The procedure:
The ability of the compounds of Formula (I) to inhibit ATPase activity of Pol theta (1-899) was determined using the assay described below.
Pol Theta ATPase activity was determined by measuring the rate of ATP turn over in a NADH oxidation-coupled enzymatic assay. 10-point dilution series of compounds were used in a 384 well format for the inhibition assays. Pol theta (1-899) (10 nM) in assay buffer (20 mM Tris HCl (pH 7.80), 80 mM KCl, 10 mM MgCl2, 1 mM DTT, 0.01% BSA, 0.01% Tween, 5% glycerol) was transferred to the test wells (20 μL), except the low control wells (20 μL of assay buffer was added to the low control wells). The plate was then incubated at room temperature for 15 min. An equal volume (20 μL) of 100 μM ATP, 300 nM dT50 (single-stranded DNA (ssDNA) containing 50 thymine bases), 300 μM NADH, 6 mM PEP, 10 U/mL lactate dehydrogenase and 20 U/mL pyruvate kinase in assay buffer was added to all the test wells. The plate was then centrifuged at 1000 rpm for 1 min. The reaction was monitored for 30 min by measuring absorbance (λ=340 nm) in a Tecan Spark multimode plate reader every minute. The high control (DMSO with enzyme) with low absorbance intensity represents no inhibition of ATPase reaction while the low control (DMSO with buffer) with high absorbance intensity represents full inhibition of ATPase activity. Slope of the reaction progress curves were used to calculate the rate of ATP hydrolysis. The rates were used to determine the percent inhibition using a four-parameter inhibition model to generate IC50, Hill slope and max inhibition.

Molecules are shown by their SMILES.

Chain of Pol theta (1-899) (O75417 1-899): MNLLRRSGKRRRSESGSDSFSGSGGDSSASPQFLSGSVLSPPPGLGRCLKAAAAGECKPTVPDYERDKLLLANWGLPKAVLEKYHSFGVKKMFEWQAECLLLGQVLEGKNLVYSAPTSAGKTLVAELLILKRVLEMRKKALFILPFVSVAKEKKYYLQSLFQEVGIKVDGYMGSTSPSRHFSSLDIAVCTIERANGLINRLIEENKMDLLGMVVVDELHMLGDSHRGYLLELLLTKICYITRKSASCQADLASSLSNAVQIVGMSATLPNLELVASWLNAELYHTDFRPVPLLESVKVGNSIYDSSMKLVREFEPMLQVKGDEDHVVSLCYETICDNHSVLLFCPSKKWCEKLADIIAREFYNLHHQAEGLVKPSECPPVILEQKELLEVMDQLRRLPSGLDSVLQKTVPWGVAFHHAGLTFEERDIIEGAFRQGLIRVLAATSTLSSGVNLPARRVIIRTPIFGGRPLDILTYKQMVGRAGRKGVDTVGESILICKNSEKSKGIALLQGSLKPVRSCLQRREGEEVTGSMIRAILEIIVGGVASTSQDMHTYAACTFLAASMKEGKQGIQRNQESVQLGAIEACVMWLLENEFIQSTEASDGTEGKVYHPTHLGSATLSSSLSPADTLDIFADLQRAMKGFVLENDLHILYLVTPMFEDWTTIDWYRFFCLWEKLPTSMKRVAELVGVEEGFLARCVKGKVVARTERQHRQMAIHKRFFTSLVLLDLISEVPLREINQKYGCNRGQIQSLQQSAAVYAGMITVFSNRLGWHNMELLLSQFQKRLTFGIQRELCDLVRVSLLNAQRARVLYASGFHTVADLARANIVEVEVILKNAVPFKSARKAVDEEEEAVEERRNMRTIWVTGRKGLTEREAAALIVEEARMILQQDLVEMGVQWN

For orientation: IC50 means the concentration needed to halve the response being measured. As for `COc1ccccc1-c1cnccc1C(=O)Nc1nnc(OCc2ccc(C3(C#N)CC3)cc2)s1` [Example 141, N-(5-[[4-(1-cyanocyclopropyl)phenyl]methoxy]-1,3,4-thiadiazol-2-yl)-3-(2-methoxyphenyl)pyridine-4-carboxamide], the IC50 was at most 0.2 µM. The figure for `COc1ccccc1-c1cnccc1C(=O)Nc1nnc(OCc2ccccc2)s1` [Example 174, N-(5-(benzyloxy)-1,3,4-thiadiazol-2-yl)-3-(2-methoxyphenyl)isonicotinamide] is at most 0.2 µM; for `O=C(Nc1nnc(OCc2ccc(Cl)cc2)s1)c1cncn1-c1ccccc1Cl` [Example 42, N-(5-((4-chlorobenzyl)oxy)-1,3,4-thiadiazol-2-yl)-1-(2-chlorophenyl)-1H-imidazole-5-carboxamide] it is at most 0.2 µM.

Regarding `N#Cc1ccc(C(=O)Nc2nnc(OCc3ccc(Cl)cc3)s2)c(N2CCOCC2)c1` [Example 72, N-(5-((4-chlorobenzyl)oxy)-1,3,4-thiadiazol-2-yl)-4-cyano-2-morpholinobenzamide], the IC50 was 0.2 to 0.5 µM.

Regarding `O=C(Nc1nnc(OCc2ccc(Cl)cc2)s1)c1cnccc1-c1ccccc1OC(F)(F)F` [Example 130, N-(5-((4-chlorobenzyl)oxy)-1,3,4-thiadiazol-2-yl)-4-(2-(trifluoromethoxy)phenyl)nicotinamide], the IC50 is at most 0.2 µM. For the molecule `COc1cccc(F)c1-c1cnccc1C(=O)Nc1nnc(OCc2ccc(Cl)cc2)s1` [Example 124, N-(5-((4-chlorobenzyl)oxy)-1,3,4-thiadiazol-2-yl)-3-(2-fluoro-6-methoxyphenyl)isonicotinamide], the IC50 is at most 0.2 µM. The figure for `COc1ccccc1-c1cc(C)ncc1C(=O)Nc1nnc(OCc2ccc(C3CC3)cn2)s1` [Example 214, N-(5-((5-cyclopropylpyridin-2-yl)methoxy)-1,3,4-thiadiazol-2-yl)-4-(2-methoxyphenyl)-6-methylnicotinamide] is at most 0.2 µM. For the molecule `COc1ccccc1-c1cc(C)ncc1C(=O)Nc1nnc(OCc2ccc(Cl)c3[nH]ncc23)s1` [Example 213, N-[5-[(7-chloro-1H-indazol-4-yl)methoxy]-1,3,4-thiadiazol-2-yl]-4-(2-methoxyphenyl)-6-methylpyridine-3-carboxamide], the IC50 was at most 0.2 µM. Next, `COc1ccccc1-c1cc(C#N)ncc1C(=O)Nc1nnc(OCc2ccc(Cl)cc2)s1` [Example 92, N-(5-((4-chlorobenzyl)oxy)-1,3,4-thiadiazol-2-yl)-6-cyano-4-(2-methoxyphenyl)nicotinamide]: at most 0.2 µM; `COc1cc(N2CCOCC2)c(C(=O)Nc2nnc(OCc3ccc(Cl)cc3)s2)cn1` [Example 75, N-(5-((4-chlorobenzyl)oxy)-1,3,4-thiadiazol-2-yl)-6-methoxy-4-morpholino-nicotinamide]: 0.5 to 1 µM; `O=C(Nc1nnc(OCc2ccc(Cl)cn2)s1)c1cnc(CO)cc1-c1ccccc1OC(F)F` [Example 104, N-(5-((5-chloropyridin-2-yl)methoxy)-1,3,4-thiadiazol-2-yl)-4-(2-(difluoromethoxy)phenyl)-6-(hydroxymethyl)nicotinamide]: at most 0.2 µM. Next, `O=C(Nc1nnc(OCc2ccc(Br)cn2)s1)c1cccnc1N1CCOCC1` [Example 15]: 1 to 10 µM; `O=C(Nc1nnc(OCc2ccc(Cl)cc2)s1)c1cccnc1C1CCOCC1` [Example 54, N-[5-[(4-chlorophenyl)methoxy]-1,3,4-thiadiazol-2-yl]-2-(oxan-4-yl)pyridine-3-carboxamide]: 0.5 to 1 µM; `COc1ccccc1-c1nc(C#N)ccc1C(=O)Nc1nnc(OCc2ccc(Cl)cc2)s1` [Example 71, N-(5-((4-chlorobenzyl)oxy)-1,3,4-thiadiazol-2-yl)-6-cyano-2-(2-methoxyphenyl)-nicotinamide]: at most 0.2 µM. Next, `O=C(Nc1nnc(OCc2ccc(Cl)cc2)s1)c1cncn1C1CCOCC1` [Example 55, N-(5-((4-chlorobenzyl)oxy)-1,3,4-thiadiazol-2-yl)-1-(tetrahydro-2H-pyran-4-yl)-1H-imidazole-5-carboxamide]: 1 to 10 µM; `NC(=O)c1ccc(C(=O)Nc2nnc(OCc3ccc(Cl)cc3)s2)c(N2CCOCC2)n1` [Example 21, N^5-(5-((4-chlorobenzyl)oxy)-1,3,4-thiadiazol-2-yl)-6-morpholinopyridine-2,5-dicarboxamide]: 1 to 10 µM; `Cc1n[nH]cc1-c1cnccc1C(=O)Nc1nnc(OCc2ccc(Cl)cc2)s1` [Example 162, N-(5-((4-chlorobenzyl)oxy)-1,3,4-thiadiazol-2-yl)-3-(3-methyl-1H-pyrazol-4-yl)isonicotinamide]: at most 0.2 µM.

Regarding `O=C(Nc1nnc(OCc2ccc(Cl)cc2)s1)c1ccncc1[C@@]12CCOC[C@@H]1C2` (mixture of isomers) [Example 175, 3-((1R,6S)-3-oxabicyclo[4.1.0]heptan-6-yl)-N-(5-((4-chlorobenzyl)oxy)-1,3,4-thiadiazol-2-yl)isonicotinamide and 3-((1S,6R)-3-oxabicyclo[4.1.0]heptan-6-yl)-N-(5-((4-chlorobenzyl)oxy)-1,3,4-thiadiazol-2-yl)isonicotinamide], the IC50 was at most 0.2 µM. Next, `Cc1cc(-c2c(F)cccc2OC(F)F)c(C(=O)Nc2nnc(OCc3ccc(Cl)cc3)s2)cn1` [Example 189, N-(5-((4-chlorobenzyl)oxy)-1,3,4-thiadiazol-2-yl)-4-(2-(difluoromethoxy)-6-fluorophenyl)-6-methylnicotinamide]: at most 0.2 µM. In the case of `COc1cc(C(=O)Nc2nnc(OCc3ccc(Cl)cc3)s2)c(-c2ccccc2OC)cn1` [Example 160, N-(5-((4-chlorobenzyl)oxy)-1,3,4-thiadiazol-2-yl)-2-methoxy-5-(2-methoxyphenyl)isonicotinamide], the IC50 is at most 0.2 µM.

As for `COc1ccccc1-c1cc(C)ncc1C(=O)Nc1nnc(OCc2ccc(C)cn2)s1` [Example 205, 4-(2-methoxyphenyl)-6-methyl-N-(5-((5-methylpyridin-2-yl)methoxy)-1,3,4-thiadiazol-2-yl)nicotinamide], the concentration for half-maximal inhibition (IC50) is at most 0.2 µM. `COc1cccc(F)c1-c1cc(C#N)ncc1C(=O)Nc1nnc(OCc2ccc(Cl)cc2)s1` [Example 185, N-(5-((4-chlorobenzyl)oxy)-1,3,4-thiadiazol-2-yl)-6-cyano-4-(2-fluoro-6-methoxyphenyl)nicotinamide]: the IC50 was at most 0.2 µM.

For the molecule `C[C@@H]1COC[C@@H](C)N1c1cnccc1C(=O)Nc1nnc(OCc2ccc(Cl)cn2)s1` [Example 188, N-(5-((5-chloropyridin-2-yl)methoxy)-1,3,4-thiadiazol-2-yl)-3-((3R,5R)-3,5-dimethylmorpholino)isonicotinamide], the half-inhibitory concentration (IC50) was at most 0.2 µM. Next, `COc1ccccc1-c1cc(C)ncc1C(=O)Nc1nnc(OCc2cccc(F)n2)s1` [Example 211, N-[5-[(6-fluoropyridin-2-yl)methoxy]-1,3,4-thiadiazol-2-yl]-4-(2-methoxyphenyl)-6-methylpyridine-3-carboxamide]: at most 0.2 µM; `O=C(Nc1nnc(OCc2ccc(Cl)cn2)s1)c1cccnc1N1CCC(F)(F)CC1` [Example 39, N-(5-((5-chloropyridin-2-yl)methoxy)-1,3,4-thiadiazol-2-yl)-2-(4,4-difluoropiperidin-1-yl)nicotinamide]: 1 to 10 µM.

For the molecule `N#Cc1ccccc1-n1cncc1C(=O)Nc1nnc(OCc2ccc(Cl)cc2)s1` [Example 43, N-(5-((4-chlorobenzyl)oxy)-1,3,4-thiadiazol-2-yl)-1-(2-cyanophenyl)-1H-imidazole-5-carboxamide], the IC50 lay in the range of 0.2 to 0.5 µM. On to `O=C(Nc1nnc(OCc2ccc(Cl)cc2)s1)c1cccnc1N1CCOc2ccccc21` [Example 66, N-(5-((4-chlorobenzyl)oxy)-1,3,4-thiadiazol-2-yl)-2-(2,3-dihydro-4H-benzo[b][1,4]oxazin-4-yl)nicotinamide], for which the IC50 fell in the range of 1 to 10 µM. With `O=C(Nc1nnc(OCc2ccc(Cl)cc2)s1)c1ccncc1-c1c(F)cccc1OC(F)F` [Example 109, N-(5-((4-chlorobenzyl)oxy)-1,3,4-thiadiazol-2-yl)-3-(2-(difluoromethoxy)-6-fluorophenyl)isonicotinamide], the IC50 was at most 0.2 µM.

Regarding `O=C(Nc1nnc(OCc2ccc(Br)cc2)s1)c1cccnc1N1CCOCC1` [Example 40, N-(5-((4-bromobenzyl)oxy)-1,3,4-thiadiazol-2-yl)-2-morpholinonicotinamide], the IC50 is 0.2 to 0.5 µM. With `N#Cc1cc(-c2c(F)cccc2OC(F)F)c(C(=O)Nc2nnc(OCc3ccc(Cl)cc3)s2)cn1` [Example 192, N-(5-((4-chlorobenzyl)oxy)-1,3,4-thiadiazol-2-yl)-6-cyano-4-(2-(difluoromethoxy)-6-fluorophenyl)nicotinamide], the IC50 was at most 0.2 µM. Next, `N#Cc1cc(N2CCOCC2)c(C(=O)Nc2nnc(OCc3ccc(Cl)cc3)s2)cn1` [Example 35, N-(5-((4-chlorobenzyl)oxy)-1,3,4-thiadiazol-2-yl)-6-cyano-4-morpholinonicotinamide]: at most 0.2 µM.

The record behind these values is patent US12509454B2, “Thiadiazolyl derivatives” (IDEAYA Biosciences, Inc., priority 2019, dated 2025).
